Laboratory results from article PMC12621175, “Scaffold Fusion and SAR Transfer with a Chemical Language Model Generates Novel Liver X Receptor Modulators” (Journal of Medicinal Chemistry, 2025).
“Also recorded” adds a separate entry of the source.

Tests used:
Type in all cases: cell-based
RORγ (NR1F3) = target: T1, RORγ (NR1F3) (Homo sapiens, UniProt P51449); assay: Gal4-RORγ hybrid reporter gene assay (off-target profiling); conditions: compared with T0901317
T1 construct: coding for the hinge region, and LBD of the canonical isoform of the respective nuclear receptor; expressed in transfected cells; host or cells: HEK293T
T1 sequence (P51449 269-508 limits assumed): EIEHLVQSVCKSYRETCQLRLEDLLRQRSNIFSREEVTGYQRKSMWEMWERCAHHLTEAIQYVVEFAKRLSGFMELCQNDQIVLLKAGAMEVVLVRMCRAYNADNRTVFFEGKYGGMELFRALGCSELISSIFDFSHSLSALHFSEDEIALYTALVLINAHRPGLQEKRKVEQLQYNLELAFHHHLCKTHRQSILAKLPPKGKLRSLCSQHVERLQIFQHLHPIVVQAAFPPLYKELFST
Source text: (§1) For the hybrid reporter gene assays, the previously reported Gal4-fusion receptor plasmids pFA-CMV-hRORα-LBD, pFA-CMV-hRORβ-LBD, pFA-CMV-hRORγ-LBD, pFA-CMV-hLXRα-LBD, pFA-CMV-hLXRβ-LBD, pFA-CMV-hFXR-LBD, pFA-CMV-hPXR-LBD, and pFA-CMV-hRXRα-LBD, coding for the hinge region, and LBD of the canonical isoform of the respective nuclear receptor were used. pFR-Luc (Stratagene) was used as the reporter plasmid, and pRL-SV40 (Promega) was used in all assays for the normalization of transfection efficiency and cell growth. pECE-SV40-Gal4-VP16 was a gift from Lea Sistonen (Addgene plasmid #71728). The LXR-responsive reporter ABCA1-pGL3 was used for the full-length reporter gene assay.
(§2) The day before transfection, HEK293T cells were seeded in 96-well plates (4 × 10^4 cells/well). Before transfection, the medium was changed to Opti-MEM without any supplements. […] Luminescence was measured with a Spark 10 M luminometer (Tecan Deutschland GmbH). […] EC50/IC50 values and the standard errors thereof were calculated with the mean fold activation values by OriginPro, Version 2025 (OriginLab Corporation, Northampton, MA, USA), fitting a dose–response curve with a variable Hill slope (Levenberg–Marquardt algorithm). […]

RXRα = target: T2, RXRα (Homo sapiens, UniProt P19793); assay: Gal4-RXRα hybrid reporter gene assay (control); conditions: 30 μM; alone and in competition with bexarotene 1 μM
T2 construct: coding for the hinge region, and LBD of the canonical isoform of the respective nuclear receptor; expressed in transfected cells; host or cells: HEK293T
T2 sequence (P19793 227-458 limits assumed): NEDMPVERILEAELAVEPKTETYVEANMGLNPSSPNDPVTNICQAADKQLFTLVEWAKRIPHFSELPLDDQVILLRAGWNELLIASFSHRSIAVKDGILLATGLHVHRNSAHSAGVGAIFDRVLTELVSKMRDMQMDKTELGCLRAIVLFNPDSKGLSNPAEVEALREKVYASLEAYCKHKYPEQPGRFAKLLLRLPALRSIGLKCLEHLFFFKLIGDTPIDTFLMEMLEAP
Source text: as §1
as §2, with “cells/well).” for “cells/well). Before transfection, the medium was changed to Opti-MEM without any supplements.”
(§3) mediated inhibition of the LXR/RXR heterodimer. […] (c) Quantification of LXR expression on mRNA level in HEK293T and HepG2 cell lines using qRT -PCR. Expression levels were calculated according to the 2 -ΔCt method relative to GAPDH. […]

Gal4-VP16 = Gal4-VP16 control experiment (ligand-independent transcriptional activator); conditions: 30 μM; vs 0.1% DMSO
Source text: as §1
as §2, with “cells/well).” for “cells/well). Before transfection, the medium was changed to Opti-MEM without any supplements.”
as §3

HepG2 cells = assay: lipolysis assay after steatosis induction with oleic and palmitic acid (Oil Red O); conditions: 30 μM, 72 h; HepG2 pretreated 24 h with oleic acid (66.7 μM) and palmitic acid (33.3 μM)
Method: HepG2 cells were seeded in collagen-coated 96-well plates at a density of 10^4 cells per well and incubated for 24 h. For the lipolytic mode, the cells were pretreated for additional 24 h with 66.7 μM oleic acid and 33.3 μM palmitic acid in culture medium with 1% bovine serum albumin (BSA). The cells were then treated with DMSO (0.1%) alone or in combination with test compounds in the culture medium. After 72 h, the cells were washed with PBS (2 × 50 μL) and fixed with 10% formalin solution (50 μL) for 15 min. After removal of the fixative, the cells were washed with H2O (2 × 50 μL), followed by 50 μL of 60% iPrOH and incubated with 50 μL Oil Red O solution (0.3% in 60% iPrOH) for 10 min to stain neutral lipids. The cells were washed quickly with 50 μL of 60% iPrOH and 2 × 50 μL of PBS. Microscopic images were taken using a 40x objective on a BZ-X810 microscope (KEYENCE, Frankfurt, Germany). Images were analyzed using ImageJ software (v1.54) according to a literature method.

Compound | RORγ activity (RORγ (NR1F3)) | RXR modulation (RXRα) | influence on Gal4-VP16-mediated luciferase reporter expression (Gal4-VP16) | lipolytic, antisteatotic activity (HepG2 cells)
CCN(C(=O)c1ccccc1)c1ccc(C(O)(C(F)(F)F)C(F)(F)F)cc1 [Compound 1, N-Ethyl-N-(4-[1,1,1,3,3,3-hexafluoro-2-hydroxypropan-2-yl]phenyl)benzamide] | reduced activity; also recorded: weaker inverse RORγ agonist | – | – | –
CS(=O)(=O)c1cccc(-c2ccc(CN(Cc3cccc(C(F)(F)F)c3Cl)CC(c3ccccc3)c3ccccc3)cc2)c1 [Compound 3, N-(2-Chloro-3-[trifluoromethyl]benzyl)-N-([3′-{methylsulfonyl}-{1,1′-biphenyl}-4-yl]methyl)-2,2-diphenylethan-1-amine] | – | neither activated RXR nor competed with literature RXR agonist bexarotene | no influence | displayed lipolytic, antisteatotic activity; also recorded: stimulated lipolysis
